Calls of active or inactive are those of the source. The rule behind the calls is not given here.
Key:
[1] = system: MGC-803; assay: Induction of apoptosis in human MGC-803 cells assessed as viable cells at 5 uM measured after 24 hrs by AnnexinV/FITC staining based flow cytometry method (reference value: 94.8%); type: functional; conditions: read-out: Activity
[2] = system: MGC-803; assay: Induction of apoptosis in human MGC-803 cells assessed as viable cells at 2.5 uM measured after 24 hrs by AnnexinV/FITC staining based flow cytometry method (reference value: 94.8%); type: functional; conditions: read-out: Activity
[3] = system: HGC-27; assay: Induction of apoptosis in human HGC-27 cells assessed as necrotic cells at 3 uM measured after 48 hrs by AnnexinV/FITC staining based flow cytometry method (reference value: 0.1%); type: functional
[4] = system: MGC-803; assay: Antitumour activity against human MGC-803 cells xenografted in NOD-SCID mouse assessed as reduction on tumour growth at 50 mg/kg/day, IG measured after 21 days relative to control; type: functional; conditions: MGC-803, po, 504 h, time 21 day, read-out: TGI
[5] = system: HGC-27; assay: Induction of apoptosis in human HGC-27 cells assessed as early apoptotic cells at 9 uM measured after 24 hrs by AnnexinV/FITC staining based flow cytometry method (reference value: 0.7%); type: functional
[6] = system: HGC-27; assay: Induction of apoptosis in human HGC-27 cells assessed as early apoptotic cells at 3 uM measured after 24 hrs by AnnexinV/FITC staining based flow cytometry method (reference value: 0.7%); type: functional
[7] = system: HGC-27; assay: Induction of apoptosis in human HGC-27 cells assessed as ROS levels at 6 uM measured after 24 hrs by DCFH-DA staining based flow cytometry assay (reference value: 6.8%); type: functional
[8] = system: MGC-803; assay: Cell cycle arrest in human MGC-803 cells assessed as accumulation of cells at G2/M phase at 2.5 uM measured after 24 hrs by Flowcytometry assay (reference value: 13.71%); type: functional
[9] = system: HGC-27; assay: Induction of apoptosis in human HGC-27 cells assessed as late apoptotic cells at 6 uM measured after 24 hrs by AnnexinV/FITC staining based flow cytometry method (reference value: 2.4%); type: functional
[10] = system: HGC-27; assay: Induction of apoptosis in human HGC-27 cells assessed as necrotic cells at 6 uM measured after 48 hrs by AnnexinV/FITC staining based flow cytometry method (reference value: 0.1%); type: functional
[11] = system: MGC-803; assay: Induction of apoptosis in human MGC-803 cells assessed as reduction of mitochondrial membrane potential at 5 uM measured after 24 hrs by JC-1 staining based Flowcytometry assay (reference value: 3.8%); type: functional; design: scale not given: the % may be the effect or the level left
[12] = system: MGC-803; assay: Antiproliferative activity against human MGC-803 cells assessed as cell survival at 7.5 uM pre-incubated with Z-VAD-FMK followed by compound addition and measured after 24 hrs by MTT assay; type: functional, cell-based
[13] = system: MGC-803; assay: Induction of apoptosis in human MGC-803 cells assessed as necrotic cells at 2.5 uM measured after 24 hrs by AnnexinV/FITC staining based flow cytometry method (reference value: 1.9%); type: functional
[14] = system: HGC-27; assay: Antiproliferative activity against human HGC-27 cells assessed as inhibition of cell proliferation at 0.39 to 50 uM measured upto 72 hrs by MTT assay; type: functional, cell-based; conditions: dose 0.39-50 µM, time hrs <=72
[15] = system: MGC-803; assay: Induction of apoptosis in human MGC-803 cells assessed as down-regulation of Bcl2 at 2.5 to 7.5 uM measured after 24 hrs by Western blot assay; type: functional, cell-based; conditions: dose 2.5-7.5 µM
[16] = system: MGC-803; assay: Induction of apoptosis in human MGC-803 cells assessed as necrotic cells at 2.5 uM measured after 48 hrs by AnnexinV/FITC staining based flow cytometry method (reference value: 0.2%); type: functional
[17] = system: HGC-27; assay: Induction of apoptosis in human HGC-27 cells assessed as viable cells at 3 uM measured after 24 hrs by AnnexinV/FITC staining based flow cytometry method (reference value: 95.7%); type: functional; conditions: read-out: Activity
[18] = system: HGC-27; assay: Induction of apoptosis in human HGC-27 cells assessed as late apoptotic cells at 9 uM measured after 48 hrs by AnnexinV/FITC staining based flow cytometry method (reference value: 1%); type: functional
[19] = system: HGC-27; assay: Inhibition of cell migration in human HGC-27 cells at 5 uM measured after 48 hrs by wound healing assay based inverted microscopic analysis; type: functional

**Q.** Which viability at 5 µM [1] does the source give for `CCCCCc1ccc(NC(=O)C2CCN(C/C=C/c3ccccc3)CC2)cc1` here?
**A.** Its viability at 5 µM is 80.1%.

**Q.** And the viability at 2.5 µM [2]?
**A.** Its viability at 2.5 µM is 93.5%.

**Q.** And the Activity [3]?
**A.** Its Activity is 2.4%.

**Q.** And the inhibition in vivo at 50 mg/kg/day [4]?
**A.** The inhibition in vivo at 50 mg/kg/day was 32.3%.

**Q.** And the Activity [5]?
**A.** Its Activity is 2.3%.

**Q.** And the Activity [6]?
**A.** The Activity was 7.5%.

**Q.** And the Activity [7]?
**A.** Its Activity is 14.5%.

**Q.** And the Activity [8]?
**A.** Its Activity is 17.77%.

**Q.** What about the Activity [9] of the same molecule?
**A.** The Activity was 51.3%.

**Q.** What about the Activity [10] of the same molecule?
**A.** The Activity was 0.7%.

**Q.** And the Activity [11]?
**A.** Its Activity is 17.4%.

**Q.** And the Activity [12]?
**A.** The Activity was “Active”.

**Q.** What about the Activity [13] of the same molecule?
**A.** Its Activity is 0.8%.

**Q.** And the Activity [14]?
**A.** The Activity was “Dose-Dependent Effect”.

**Q.** And the Activity [15]?
**A.** The Activity was “Dose-Dependent Effect”.

**Q.** And the Activity [16]?
**A.** Its Activity is 2.9%.

**Q.** What about the viability at 3 µM [17] of the same molecule?
**A.** The viability at 3 µM was 87.5%.

**Q.** And the Activity [18]?
**A.** The Activity was 99.5%.

**Q.** And the inhibition at 5 µM [19]?
**A.** Its inhibition at 5 µM is 60%.

— ChEMBL document CHEMBL5038615, “Discovery of a cinnamyl piperidine derivative as new neddylation inhibitor for gastric cancer treatment” (Eur J Med Chem, 2021)
